Patent US20230414617A1, “PHARMACEUTICAL COMPOSITION COMPRISING ACID-BASE NEUTRALIZATION COMBINATION AND APPLICATION THEREOF” (CHENGDU KUACHANGAOPU MEDICAL TECHNOLOGY CO., LTD., priority 2020, published 2023)

Experiments:
[1] = pH of the study drug aqueous solution; assay type: physicochemical
liver tissue = test: Tissue necrosis study: necrotic zone of liver tissue after intrahepatic injection (Example 2); assay type: in vivo, New Zealand Large White rabbits
Procedure: The rabbits were kept on conventional diet after drug administration, euthanized after 1 week, and the necrotic zone of the liver was determined after autopsy. The liver was incised along the center of the necrotic zone, and the extent of the necrotic zone was measured at the largest level, and the maximum and minimum diameters of the necrotic zone were measured respectively. The average diameter of the necrotic zone of liver tissue=(maximum diameter+minimum diameter)/2.

sarcoma S180 cell = test: Tumor inhibition effect in mice bearing sarcoma S180 cell (Example 2); assay type: in vivo; settings: intratumoral injection; for Tumor weight (x ± s): 150 μl/mouse, once every 3 days x3, 5th day after end; for Tumor inhibition rate: vs negative control group 01
Procedure: (§1) In the following examples of the present invention, the co-administration pharmaceutical efficacies of drug A and drug B combination administration was determined by ratio q of actual pharmaceutical efficacy/expected pharmaceutical efficacy according to Zhengjun JIN method, as follows.
In the tumor inhibition effect study, successfully modeled experimental animals (mice bearing sarcoma S180 cell, with an average tumor volume of 314 mm^3) were randomly divided into 2 negative control groups (01, 02) and 9 drug study groups (1-9). […] The negative control and study drugs were administered by intraperitoneal injection (groups 02, 6 and 9) and intratumoral injection (other study groups), respectively. Each group was administered once every 3 days for a total of 3 times, with an injection volume of 150 μl/mouse. On the 5th day after the administration was ended, the animals were euthanized, and the tumor weight was measured after anatomy to the animals. The tumor inhibition rate was calculated from the negative control group of each drug administration mode.

tumor = test: Tumor inhibition rate, general statements (chemical ablation study; positive controls); assay type: in vivo
breast cancer 4T1 cells [2] = test: Tumor inhibition, breast cancer 4T1 transplantation tumor (Example 3); assay type: in vivo, BALB/c mouse; settings: intratumoral; for Tumor weight (x ± s): 150 μl/mouse, once every 3 days x3, 5th day after end; for Tumor inhibition rate: vs negative control
Procedure: as §1
In an experiment, the test animal was a BALB/c mouse, the modeling cells were breast cancer 4T1 cells, and the transplantation tumor was modeled at 1×10^6 cells/mouse under the skin of the animal's right axilla. […] Each group was administered by intratumoral injection once every 3 days for a total of 3 times, each time at an injection dose of 150 μl/mouse. On the 5th day after the administration was ended, the animals were euthanized, and the tumor weight was determined after anatomy to the animals. The tumor inhibition rate was calculated from the negative control group.

[3] = test system: outer lateral muscle of right leg; test: Series A: tissue destruction in normal muscle after intramuscular injection (Example 10); assay type: in vivo, nude mice; settings: one intramuscular injection 100 μl/mouse, day 3
Procedure: The test animals were divided into two series, A and B. The animals in series A were non-modeled nude mice, randomly divided into four groups, and were injected with the drugs according to groups 1-4 in Table 11 by intramuscular injection of outer lateral muscle of right leg. Each group was administered once, at an injection volume of 100 μl/mouse. On day 3 after the administration was ended, the animals were euthanized, and the specimens from outer lateral muscle mass of right leg of the nude mice were dissected and taken out, and gross pathological analysis was performed. The muscle sections were measured for distinguishing the area of tissue destruction region in the normal muscle (incomplete necrosis) (T3a) and the area of severe tissue destruction region therein (complete necrosis) […], and the results are shown in Table 11 below.

[4] = test system: mouse liver cancer Hepa1-6 cells; test: Series B: tumor inhibition, Hepa1-6 transplantation tumor in 8-month-old mice (Example 10); assay type: in vivo; settings: one intratumoral injection 100 μl/mouse; for r'3d, tumor inhibition rate (tumor volume): day 3; for r'14d, tumor inhibition rate (tumor volume): day 14
Procedure: The animals in series B were modeled in 8-month-old mice as a middle-aged and elderly patient model, which was not consistent with the commonly used young patient model in terms of tumor formation, tumor histomorphology, and body immunocompetence. […] The model animals were randomly divided into 13 groups. Each group was administered once by intratumoral injection according to the drug grouping in Table 11 with an injection volume of 100 μl/mouse.
The actual/expected ratio […] for short-term drug efficacy and the actual/expected ratio q14d for medium-term drug efficacy were calculated based on the drug efficacies (r′3d, […]) at different times (day 3, day 14), respectively.

breast cancer 4T1 cells [5] = test: Tumor inhibition, breast cancer 4T1 transplantation tumor (Example 7); assay type: in vivo, BALB/c mouse; settings: intratumoral
Procedure: as §1
In an experiment, the test animal was a BALB/c mouse, the modeling cells were breast cancer 4T1 cells, and the transplantation tumor was modeled at 1×10^6 cells/mouse under the skin of the animal's right axilla. […] The negative controls and study drugs were administered intraperitoneally (groups 02, 11 and 15) and intratumorally (other study groups), respectively. All groups were dosed once every 3 days, for a total of 3 times, […], with an injection volume of 150 ul/mouse. On the 5th day after the administration was ended, the animals were euthanized, and the tumor weight was measured after anatomy to the animals. The tumor inhibition rate was calculated from the negative control group.

breast cancer 4T1 cells [6] = test: Tumor inhibition, breast cancer 4T1 transplantation tumor (Example 4); assay type: in vivo, BALB/c mice; settings: intratumoral
Procedure: as §1
In another experiment, the test animal was BALB/c mice, the modeling cells were breast cancer 4T1 cells, and the transplantation tumor was modeled at 1×10^6 cells/mouse under the skin of the animal's right axilla. Successfully modeled experimental animals (average tumor volume 307 mm^3) were randomly divided into 1 negative control group (group 0) and 13 drug study groups (groups 1-13). […] Each group was administered by intratumoral injection once every 3 days for a total of 3 times, each time at an injection dose of 150 μl/mouse. On the 5th day after the administration was ended, the animals were euthanized, and the tumor weight was measured after anatomy to the animals. The tumor inhibition rate was calculated from the negative control group.

[7] = study drugs of Example 2 (Table 4), aqueous solution
[8] = positive controls, under the conditions of the following examples
[9] = study drugs of Example 3 (Table 5), aqueous solution

[Na+].[OH-] [0.3% NaOH, sodium hydroxide]
pH [1, 7]: 13.3
Diameter of necrotic zone of liver tissue (r ± s) (liver tissue; rabbit, in vivo): 1.3 ± 0.3 cm
Tumor weight (x ± s) (sarcoma S180 cell): 1.52 ± 0.22 g
Tumor inhibition rate (sarcoma S180 cell): 31%

O=c1[nH]cc(F)c(=O)[nH]1 [0.5-1% 5-fluorouracil, 5-fluorouracil]
Tumor inhibition rate (tumor; [8]): ≥ 30%

[Na+].[OH-] [3% NaOH, sodium hydroxide]
Tumor weight (x ± s) (breast cancer 4T1 cells [2]): 1.09 ± 0.25 g
Tumor inhibition rate (breast cancer 4T1 cells [2]): 55%
S3d, area of severe tissue destruction region (complete necrosis) [3]: 18.3 mm^2
T3d, area of tissue destruction region in the normal muscle (incomplete necrosis) [3]: 29.6 mm^2
pH [1, 7]: 13.8
pH ([1]; study drugs of Example 2 (Table 4), aqueous solution, listed as 3% sodium hydroxide): 11.8
pH [1, 9]: 13.7
r'3d, tumor inhibition rate (tumor volume) [4]: 31.2%
r'14d, tumor inhibition rate (tumor volume) [4]: 2.8%
Diameter of necrotic zone of liver tissue (r ± s) (liver tissue; rabbit, in vivo): 1.8 ± 0.5 cm
Tumor weight (x ± s) (sarcoma S180 cell): 1.04 ± 0.21 g
Tumor inhibition rate (sarcoma S180 cell): 53%

O=C([O-])O.[Na+] [7% sodium bicarbonate, sodium bicarbonate]
Tumor weight (x ± s) (breast cancer 4T1 cells [2]): 1.73 ± 0.27 g
Tumor inhibition rate (breast cancer 4T1 cells [2]): 29%
S3d, area of severe tissue destruction region (complete necrosis) [3]: 0 mm^2
T3d, area of tissue destruction region in the normal muscle (incomplete necrosis) [3]: 0 mm^2
pH [1, 7]: 8.1
pH [1, 9]: 8.1
r'3d, tumor inhibition rate (tumor volume) [4]: 4.1%
r'14d, tumor inhibition rate (tumor volume) [4]: 3.9%
Tumor weight (x ± s) (sarcoma S180 cell): 1.59 ± 0.20 g
Tumor inhibition rate (sarcoma S180 cell): 28%

N=C(N)NCCC[C@H](N)C(=O)O [15% arginine, arginine]
Tumor weight (x ± s) (breast cancer 4T1 cells [5]; 150 ul/mouse, once every 3 days x3, 5th day after end): 1.64 ± 0.28 g
Tumor inhibition rate (breast cancer 4T1 cells [5]; vs negative control): 25%
Tumor weight (x ± s) (breast cancer 4T1 cells [6]; 150 μl/mouse, once every 3 days x3, 5th day after end): 1.74 ± 0.28 g
Tumor inhibition rate (breast cancer 4T1 cells [6]; vs negative control): 23%
pH [1, 7]: 10.9
pH ([1]; study drugs of Example 4 (Table 6), aqueous solution): 11.0
pH ([1]; study drugs of Example 7 (Table 9), aqueous solution): 10.9
Diameter of necrotic zone of liver tissue (r ± s) (liver tissue; one intrahepatic injection of 1.0 mL, after 1 week): 0.2 ± 0.1 cm
Tumor weight (x ± s) (sarcoma S180 cell): 2.01 ± 0.24 g
Tumor inhibition rate (sarcoma S180 cell): 23%

CCO [75-99% ethanol, ethanol]
Tumor inhibition rate (tumor; [8]): ≥ 15%

[Na+].[OH-] [sodium hydroxide]
pH ([1]; sodium hydroxide solution before and after neutralization with sodium bicarbonate (e.g.)): 12
Tumor inhibition rate (tumor; chemical ablation study with basifying agents, model not stated): 43%
